According to US20220307066A1, “AN ENZYMATIC ASSAY TO MEASURE LONG-TERM ADHERENCE TO PRE EXPOSURE PROPHYLAXIS AND ANTIRETROVIRAL THERAPY” (University of Washington, priority 2019, published 2022):
Values joined by “and” are separate entries in the source; they are usually repeats but may differ in a detail not shown here. Equal values may be shown once. Read-outs that look alike come from different tables or passages of the source.

Legend:
[1] = cited from earlier work
HIV-1 RT [2] = molecular target: T1, HIV-1 RT (Human immunodeficiency virus type 1 group M subtype B, UniProt P04585); experiment: RESTRICT assay with TFV-DP in buffer at different dNTP concentrations; type: biochemical; conditions: 100, 300, 1560, 6250 nM dNTP, fixed 50 to 1 dNTP to template
T1 construct: Recombinant reverse transcriptase protein obtained through the NIH AIDS Reagent Program; purchased NIH AIDS Reagent Program, Division of AIDS, NIAID, NIH
Protocol: Optimal assay conditions were determined for RT activity in order to minimize assay time and reagent concentration, using RT enzyme obtained through the NIH AIDS Reagent Program, Division of AIDS, NIAID, NIH (Le Grice, S. F. J.; et al., Purification and Characterization of Human Immunodeficiency Virus Type 1 Reverse Transcriptase. In Methods in Enzymology; DNA Replication; Academic Press, 1995, 262, 130-144). Reactions were carried out in a buffer containing: 60 mM Tris (77-86-1, Sigma), 30 mM KCl (7447-40-7, Sigma), 8 mM MgCl2 (7786-30-3, Sigma), and 10 mM dithiothreitol (20-265, Sigma) buffered to pH 8.0 using HCl (7647-01-0, Acros Organics).
The DNA template has a 20 nt primer binding site complementary to the M13 phage DNA primer AGAGTTTGATCCTGGCTCAG (Catalog, Integrated DNA Technologies, Coralville, Iowa), set forth herein as SEQ ID NO:1, followed by TTCA repeats with a total template length of 200 nt. The DNA template was designed using NUPACK software (Zadeh, J. N. et al., NUPACK: Analysis and Design of Nucleic Acid Systems. J. Comput. Chem. 2011, 32 (1), 170-173) to preferentially include T bases because TFV-DP is a deoxyadenosine triphosphate (dATP) analog and thus will bind to T's in the DNA template. […]
Fluorescence from RESTRICT assay data was normalized to allow comparison of data points gathered at different dNTP concentrations as follows, […]

[3] = in vivo
HIV-1 RT [4] = molecular target: T1, HIV-1 RT; experiment: RESTRICT assay with TFV-DP spiked in diluted whole blood (0.25% final); type: biochemical; conditions: 0.25% blood, 100 nM dNTP, N = 4
Protocol: [sequence] assays were conducted with TFV-DP (166403-66-3, BOC Sciences Inc.) using 5 μL of DNA template, 5 μL of primer, 20 μL of dNTPs solution, 5 μL of TFV-DP, and 5 μL of HIV-1 RT. […] Serial dilutions of TFV-DP in buffer spanning a concentration range of 1-10,000 nM were prepared to span two orders of magnitude above and below the clinically relevant range for adherence measurement as described in pharmacokinetic studies. […] [sequence] assay optimization experiments were completed at 100, 300, 1560, and 6250 nM dNTP concentration.
Fluorescence from [sequence] assay data was normalized to allow comparison of data points gathered at different dNTP concentrations as follows,
HIV-negative, human whole blood (BioIVT, Westbury, N.Y.) was diluted in nuclease-free water (3098, Sigma) to lyse RBCs and reduce unwanted inhibition of RT activity by blood components such as immunoglobulins. Blood was mixed with the water by vortexing and incubating for 5 minutes to lyse RBCs.
Five μL of TFV-DP were spiked in 2% blood to 35 μL of master mix so that the final concentration of blood in the [sequence] assay was 0.25%. […]

HIV-1 RT [5] = molecular target: T1, HIV-1 RT; experiment: RESTRICT assay on whole blood of study participants (clinical samples); type: biochemical
Text: The RESTRICT assay detects TFV-DP drug concentrations based on its mechanism of action on HIV RT. See examples above and Olanrewaju AO, et al. An enzymatic assay for rapid measurement of antiretroviral drug levels. ACS Sens. April 2020. TFV-DP causes chain termination when HIV RT synthesizes viral double stranded DNA (dsDNA). The RESTRICT assay provides all the reagents required for dsDNA synthesis—a DNA template, primers, nucleotides, recombinant HIV RT enzyme, and appropriate buffers—and measures TFV-DP concentrations in a patient's blood using intercalating fluorescence dyes based on the extent of DNA synthesis. At low TFV-DP concentrations, full-length dsDNA is formed and binds to many intercalating dye molecules resulting in high fluorescence. Meanwhile, at high TFV-DP concentrations, DNA chain termination occurs resulting in dsDNA fragments that bind to few intercalating dye molecules resulting in low fluorescence. Thus, the fluorescence readout from the RESTRICT assay was used to estimate TFV-DP concentration in a patient's blood. […]
The RESTRICT assay was completed in 5 simple steps. […] Then 5 μL of 100 nM of HIV-1 RT was added to initiate the assay which was incubated at 37° C. for 30 min in a microplate reader (SpectraMax iD3, Molecular Devices). […]

C[C@H](Cn1cnc2c(N)ncnc21)OCP(=O)(O)O [TFV, tenofovir]
half-life ([1]; plasma): 15 h and 17 h | detectable for up to ([1]; urine): ≤ 7 days

CC(Cn1cnc2c(N)ncnc21)OCP(=O)(O)OP(=O)(O)OP(=O)(O)O (stereo in doubt) [TFV-DP, tenofovir diphosphate]
IC50 of inhibition curve as dNTP concentration increases (HIV-1 RT [2]): shift right, towards higher IC50 values | clinical range for TFV-DP adherence, concentration in whole blood [3]: 75 to 850 nM | Normalized fluorescence (%) (HIV-1 RT [4]; TFV-DP 85.4 nM (16.9 fmol/10^6 RBCs, low adherence, 1 dose per week)): 89.0% | Normalized fluorescence (%) (HIV-1 RT [4]; TFV-DP 768 nM (152.3 fmol/10^6 RBCs, high adherence, 7 doses per week)): 57.5% | Median TFV-DP concentrations in RBCs ([1]; depending on adherence, LC/MS): 15-170 fmol/10^6 RBCs | accumulation in red blood cells (RBCs) ([1]; in vivo): 25 fold | half-life ([1]; red blood cells): 408 h | Median fluorescence, RESTRICT assay (HIV-1 RT [5]; samples containing <700 fmol/punch TFV-DP (N=14)): 51.3% | Median fluorescence, RESTRICT assay (HIV-1 RT [5]; samples containing ≥700 fmol/punch TFV-DP (N=4)): 31.9%
